Test results: ChEMBL document CHEMBL1201862, “PubChem BioAssay data set” (2004)
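Test compounds were applied to cells in 96-well plates for 48 hours at 5 doses. Here, GI50 denotes the concentration required for 50% inhibition of growth.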 Calls of active or inactive are those of the source. No stated cut-off is given here; in the data, active = GI50 up to about 1.1 µM and inactive = higher.

Key:
Experiment in all cases: growth of human tumour cells (NCI), 48 h
MDA-MB-435 = system: MDA-MB-435
786-0 = system: 786-0
ACHN = system: ACHN
A549 = system: A549
HOP-62 = system: HOP-62
CCRF-CEM = system: CCRF-CEM
RPMI-8226 = system: RPMI-8226
MDA-MB-231 = system: MDA-MB-231
MOLT-4 = system: MOLT-4
SF-268 = system: SF-268
NCI-H23 = system: NCI-H23
HCT-116 = system: HCT-116
SNB-19 = system: SNB-19
HT-29 = system: HT-29
MCF7 = system: MCF7
EKVX = system: EKVX
NCI-H522 = system: NCI-H522
HL-60 = system: HL-60
SNB-75 = system: SNB-75
NCI/ADR-RES = system: NCI/ADR-RES

Measured: GI50

C[N+](CCCl)(CCCl)Cc1cccc2cccc([N+](=O)[O-])c12
inactive: MDA-MB-435 > 100 µM | 786-0 > 100 µM | ACHN 44.5 µM | A549 97.3 µM | HOP-62 89.1 µM | CCRF-CEM 73.6 µM | RPMI-8226 40.5 µM | MDA-MB-231 > 100 µM | MOLT-4 60.5 µM | SF-268 > 100 µM | NCI-H23 30 µM | HCT-116 > 100 µM | SNB-19 75.2 µM | HT-29 55.8 µM | MCF7 38.2 µM | EKVX > 100 µM | NCI-H522 73.1 µM | HL-60 45.1 µM | SNB-75 > 100 µM | NCI/ADR-RES > 100 µM

CCOC(=O)C(NC(=O)c1ccccc1)(N1CCOCC1)C(F)(F)F (configuration not stated)
inactive: MDA-MB-435 > 100 µM | 786-0 > 100 µM | ACHN > 100 µM | A549 > 100 µM | HOP-62 > 100 µM | CCRF-CEM > 100 µM | RPMI-8226 > 100 µM | MDA-MB-231 > 100 µM | MOLT-4 > 100 µM | SF-268 > 100 µM | NCI-H23 > 100 µM | HCT-116 > 100 µM | SNB-19 > 100 µM | HT-29 > 100 µM | MCF7 > 100 µM | EKVX > 100 µM | NCI-H522 > 100 µM | HL-60 > 100 µM | SNB-75 > 100 µM | NCI/ADR-RES > 100 µM

Cc1ccc(O)c(C(c2cccc(C(c3cc(C)ccc3O)c3cc(C)ccc3O)c2)c2cc(C)ccc2O)c1
inactive: MDA-MB-435 1.75 µM | 786-0 1.69 µM | ACHN 1.73 µM | A549 1.97 µM | HOP-62 2.06 µM | CCRF-CEM 2.38 µM | RPMI-8226 1.55 µM | MDA-MB-231 1.25 µM | MOLT-4 2.6 µM | SF-268 1.6 µM | NCI-H23 1.75 µM | HCT-116 1.89 µM | SNB-19 1.89 µM | HT-29 1.66 µM | MCF7 1.58 µM | EKVX 1.82 µM | NCI-H522 1.64 µM | HL-60 2.01 µM | SNB-75 1.93 µM | NCI/ADR-RES 3.01 µM

Cc1cc(O)c2c(c1)CC(O)C1=C2C(=O)c2c(O)ccc(OC3CC(O)C(OC4CC(OC5CCC(O)C(C)O5)C(O)C(C)O4)C(C)O3)c2C1=O (configuration not stated)
inactive: 786-0 1.42 µM | ACHN 1.58 µM | A549 2.33 µM | HOP-62 1.59 µM | MDA-MB-231 1.77 µM | SF-268 1.74 µM | NCI-H23 1.83 µM | HCT-116 1.75 µM | SNB-19 1.6 µM | HT-29 2.27 µM | MCF7 1.39 µM | EKVX 1.89 µM | SNB-75 2.74 µM | NCI/ADR-RES 2.93 µM
active: MDA-MB-435 1.03 µM | CCRF-CEM 0.203 µM | RPMI-8226 0.53 µM | MOLT-4 0.305 µM | NCI-H522 0.964 µM | HL-60 0.386 µM

O=c1[nH]c(=S)[nH]cc1CN1CCOCC1
inactive: MDA-MB-435 > 100 µM | 786-0 > 100 µM | ACHN > 100 µM | A549 > 100 µM | HOP-62 > 100 µM | CCRF-CEM > 100 µM | RPMI-8226 > 100 µM | MDA-MB-231 > 100 µM | MOLT-4 > 100 µM | SF-268 > 100 µM | NCI-H23 > 100 µM | HCT-116 > 100 µM | SNB-19 > 100 µM | HT-29 > 100 µM | MCF7 > 100 µM | EKVX > 100 µM | NCI-H522 > 100 µM | HL-60 > 100 µM | SNB-75 > 100 µM | NCI/ADR-RES > 100 µM

CCOc1ccc(-n2nnc3c(N)nc(N)nc32)cc1
inactive: MDA-MB-435 > 100 µM | 786-0 > 100 µM | ACHN > 100 µM | A549 > 100 µM | HOP-62 > 100 µM | CCRF-CEM > 100 µM | RPMI-8226 > 100 µM | MDA-MB-231 > 100 µM | MOLT-4 > 100 µM | NCI-H23 > 100 µM | HCT-116 > 100 µM | SNB-19 29.1 µM | HT-29 > 100 µM | MCF7 > 100 µM | EKVX > 100 µM | NCI-H522 > 100 µM | HL-60 > 10 µM | SNB-75 > 100 µM | NCI/ADR-RES > 100 µM

COC(=O)c1cc(C#N)[nH]c1-c1ccsc1
inactive: MDA-MB-435 > 100 µM | 786-0 > 100 µM | ACHN 85.7 µM | A549 > 100 µM | HOP-62 > 100 µM | CCRF-CEM 76.2 µM | RPMI-8226 22.5 µM | MDA-MB-231 > 100 µM | MOLT-4 8.63 µM | SF-268 > 100 µM | NCI-H23 > 100 µM | HCT-116 > 100 µM | HT-29 > 100 µM | MCF7 10 µM | EKVX 74.8 µM | NCI-H522 87.7 µM | HL-60 18.2 µM | SNB-75 > 100 µM | NCI/ADR-RES > 100 µM

O=C(N/N=C/c1ccc([N+](=O)[O-])cc1)c1cccc2nc3ccccc3nc12
inactive: MDA-MB-435 > 100 µM | 786-0 > 100 µM | ACHN > 38.5 µM | A549 1.24 µM | HOP-62 1.74 µM | CCRF-CEM > 92.5 µM | RPMI-8226 > 100 µM | MDA-MB-231 > 70.3 µM | MOLT-4 > 36.8 µM | SF-268 > 58.9 µM | NCI-H23 12.2 µM | HCT-116 > 100 µM | SNB-19 > 55.8 µM | HT-29 > 100 µM | MCF7 > 100 µM | EKVX > 100 µM | NCI-H522 > 100 µM | HL-60 > 100 µM | SNB-75 > 100 µM | NCI/ADR-RES > 100 µM

OC(C/C(=N\N=C(/CC(O)(C(F)(F)F)C(F)(F)F)c1ccccc1)c1ccccc1)(C(F)(F)F)C(F)(F)F
inactive: MDA-MB-435 > 10 µM | 786-0 > 10 µM | ACHN > 10 µM | A549 > 10 µM | HOP-62 > 10 µM | CCRF-CEM > 10 µM | RPMI-8226 > 10 µM | MDA-MB-231 > 10 µM | MOLT-4 > 10 µM | SF-268 > 10 µM | NCI-H23 > 10 µM | HCT-116 > 10 µM | SNB-19 > 10 µM | HT-29 > 10 µM | MCF7 > 10 µM | EKVX > 10 µM | NCI-H522 > 10 µM | HL-60 > 10 µM | SNB-75 > 10 µM | NCI/ADR-RES > 10 µM

CC1(C)OC[C@@H](C[C@H](O)COCc2ccccc2)O1
inactive: MDA-MB-435 > 100 µM | 786-0 > 100 µM | ACHN > 100 µM | A549 > 100 µM | HOP-62 > 100 µM | CCRF-CEM > 100 µM | RPMI-8226 > 100 µM | MDA-MB-231 > 100 µM | MOLT-4 > 100 µM | SF-268 > 100 µM | NCI-H23 > 100 µM | HCT-116 > 100 µM | SNB-19 > 100 µM | HT-29 > 100 µM | MCF7 > 100 µM | EKVX > 100 µM | NCI-H522 > 100 µM | HL-60 > 100 µM | SNB-75 > 100 µM | NCI/ADR-RES > 100 µM

CCN(CC)CCNC(=O)c1cn2c(ccc3sc4ccccc4c(=O)c32)n1
inactive: MDA-MB-435 16.7 µM | 786-0 4.1 µM | ACHN 3.64 µM | A549 4.36 µM | HOP-62 5.96 µM | CCRF-CEM 2.74 µM | RPMI-8226 5.62 µM | MDA-MB-231 8.95 µM | SF-268 6.93 µM | NCI-H23 11.2 µM | HCT-116 5.97 µM | SNB-19 11.5 µM | HT-29 6.89 µM | MCF7 5.87 µM | EKVX 14.6 µM | NCI-H522 9.16 µM | HL-60 5.26 µM | SNB-75 16.3 µM | NCI/ADR-RES 11.2 µM
active: MOLT-4 0.502 µM

COC(=O)[C@@]12CC3CN(Cc4c1[nH]c1ccccc41)C2CC3=O
inactive: MDA-MB-435 > 100 µM | 786-0 > 100 µM | ACHN > 100 µM | A549 > 100 µM | HOP-62 > 100 µM | CCRF-CEM > 100 µM | RPMI-8226 > 100 µM | MDA-MB-231 > 100 µM | MOLT-4 > 100 µM | SF-268 > 100 µM | NCI-H23 > 100 µM | HCT-116 > 100 µM | SNB-19 > 100 µM | HT-29 > 100 µM | MCF7 > 100 µM | EKVX > 100 µM | NCI-H522 > 100 µM | HL-60 > 100 µM | SNB-75 74.8 µM | NCI/ADR-RES > 100 µM

Cc1nc2ccc(S(=O)(=O)Nc3ccc(Cl)cc3)cc2c(=O)n1NC(=O)CNc1ccc(Cl)cc1
inactive: MDA-MB-435 > 100 µM | 786-0 > 100 µM | ACHN > 100 µM | A549 > 100 µM | HOP-62 > 100 µM | CCRF-CEM > 100 µM | RPMI-8226 > 100 µM | MDA-MB-231 > 100 µM | MOLT-4 > 100 µM | SF-268 > 100 µM | NCI-H23 > 100 µM | HCT-116 > 100 µM | SNB-19 > 100 µM | HT-29 > 100 µM | MCF7 > 100 µM | EKVX > 100 µM | NCI-H522 > 100 µM | HL-60 > 100 µM | SNB-75 > 100 µM | NCI/ADR-RES > 100 µM

Cc1cc(S(=O)(=O)Nc2nc(N)n(-c3ccccn3)n2)c(S)cc1Cl
inactive: MDA-MB-435 > 100 µM | 786-0 > 100 µM | ACHN > 100 µM | A549 > 100 µM | HOP-62 > 100 µM | CCRF-CEM > 100 µM | RPMI-8226 > 100 µM | MDA-MB-231 > 100 µM | MOLT-4 > 100 µM | SF-268 > 100 µM | HCT-116 > 100 µM | SNB-19 > 100 µM | HT-29 > 100 µM | MCF7 > 100 µM | EKVX > 100 µM | NCI-H522 > 100 µM | HL-60 > 100 µM | SNB-75 > 100 µM | NCI/ADR-RES > 100 µM
